According to patent US20120129763A1, “NOVEL SEMI-SYNTHETIC GLYCOPEPTIDES AS ANTIBACTERIAL AGENTS” (BIOMARIN PHARMACEUTICAL INC., priority 2007, published 2012):
Values after ≈ are worked out from the molar mass of the structure shown.

Legend:
Format in all cases: cell-based
Details in all cases: clinical isolate, Mueller-Hinton broth
[1] = system: Streptococcus pyogenes 712 (penicillin sensitive); assay: Broth microdilution MIC, SPYO 712
Protocol: (§1) Antibacterial activity in vitro is investigated by broth microdilution method in Meuller-Hinton broth as recommended by NCCLS. All strains tested are clinical isolates either sensitive or resistant to natural glycopeptides. MIC values were determined using the CLSI-recommended broth microdilution procedure (Clinical and Laboratory Standards Institute, Methods for Dilution Antimicrobial Susceptibility Tests for Bacteria That Grow Aerobically; Approved Standard-Seventh Edition). Automated liquid handlers (Multidrop 384, Labsystems, Helsinki, Finland; Biomek 2000 and Multimek 96, Beckman Coulter, Fullerton Calif.) were used to conduct serial dilutions and liquid transfers.

[2] = system: Staphylococcus aureus 2012 (VISA); assay: Broth microdilution MIC, SA 2012
Protocol: as §1

[3] = system: Streptococcus pneumoniae 1195 (penicillin sensitive); assay: Broth microdilution MIC, SPNE 1195
Protocol: as §1

[4] = system: Enterococcus faecalis 101 (vancomycin sensitive); assay: Broth microdilution MIC, EFC 101
Protocol: as §1

[5] = system: Staphylococcus epidermidis 831 (MRSE); assay: Broth microdilution MIC, SE 831; parameters: unit not given beside the values
Protocol: as §1

[6] = system: Staphylococcus aureus 100 (MSSA); assay: Broth microdilution MIC, SA 100
Protocol: as §1

[7] = system: Enterococcus faecium 750 (vancomycin sensitive); assay: Broth microdilution MIC, EFCM 750
Protocol: as §1

[8] = system: Enterococcus faecium 752 (VRE); assay: Broth microdilution MIC, EFCM 752
Protocol: as §1

[9] = system: Enterococcus faecalis 848 (VRE); assay: Broth microdilution MIC, EFC 848
Protocol: as §1

[10] = system: Staphylococcus aureus 757 (MRSA); assay: Broth microdilution MIC, SA 757
Protocol: as §1

[11] = system: Staphylococcus epidermidis 835 (MSSE); assay: Broth microdilution MIC, SE 835; parameters: unit not given beside the values
Protocol: as §1

Row | Compound | MIC, S PYO 712 [1] [µg/mL] | MIC, SA 2012 [2] [µg/mL] | MIC, S PNE 1195 [3] [µg/mL] | MIC, E FC 101 [4] [µg/mL] | MIC, SE 831 [5] | MIC, SA 100 [6] [µg/mL] | MIC, E FCM 750 [7] [µg/mL] | MIC, E FCM 752 [8] [µg/mL] | MIC, E FC 848 [9] [µg/mL] | MIC, SA 757 [10] [µg/mL] | MIC, SE 835 [11]
1 | CN[C@H](CC(C)C)C(=O)N[C@H]1C(=O)N[C@@H](CC(=O)NC(=O)N[C@@H](C)c2ccccc2)C(=O)N[C@H]2C(=O)N[C@@H]3C(=O)N[C@H](C(=O)N[C@H](C(=O)NC4C5CC6CC(C5)CC4C6)c4cc(O)cc(O)c4-c4cc3ccc4O)[C@H](O)c3ccc(c(Cl)c3)Oc3cc2cc(c3OC2O[C@H](COC(=O)N[C@@H](C)c3ccccc3)[C@@H](O)[C@H](O)[C@H]2O)Oc2ccc(cc2Cl)[C@H]1O (stereo partly drawn) [Compound 75] | 0.25 (≈ 0.144 µM) | 4 (≈ 2.31 µM) | 1 (≈ 0.577 µM) | 2 (≈ 1.15 µM) | 1 | 4 (≈ 2.31 µM) | 0.5 (≈ 0.288 µM) | 2 (≈ 1.15 µM) | 2 (≈ 1.15 µM) | 2 (≈ 1.15 µM) | 2
2 | CCCCCCCCNC(=O)NC(=O)C[C@@H]1NC(=O)[C@H](NC(=O)[C@@H](CC(C)C)NC)[C@H](O)c2ccc(c(Cl)c2)Oc2cc3cc(c2OC2OC(CO)C(O)C(O)C2O)Oc2ccc(cc2Cl)[C@@H](O)[C@H]2NC(=O)[C@H](NC(=O)[C@@H]3NC1=O)c1ccc(O)c(c1)-c1c(O)cc(O)cc1[C@@H](C(=O)NC1C3CC4CC(C3)CC1C4)NC2=O (stereo partly drawn) [Compound 29] | 0.12 (≈ 0.0753 µM) | 1 (≈ 0.627 µM) | 0.12 (≈ 0.0753 µM) | 1 (≈ 0.627 µM) | 0.5 | 2 (≈ 1.25 µM) | 0.5 (≈ 0.314 µM) | 2 (≈ 1.25 µM) | 2 (≈ 1.25 µM) | 1 (≈ 0.627 µM) | 1
3 | CN[C@H](CC(C)C)C(=O)N[C@H]1C(=O)N[C@@H](CC(=O)NC(=O)N[C@@H](C)c2ccccc2)C(=O)N[C@H]2C(=O)N[C@@H]3C(=O)N[C@H](C(=O)N[C@H](C(=O)NC4C5CC6CC(C5)CC4C6)c4cc(O)cc(O)c4-c4cc3ccc4O)[C@H](O)c3ccc(c(Cl)c3)Oc3cc2cc(c3OC2O[C@H](CO)[C@@H](O)[C@H](O)[C@H]2O)Oc2ccc(cc2Cl)[C@H]1O (stereo partly drawn) [Compound 76] | 0.06 (≈ 0.0378 µM) | 4 (≈ 2.52 µM) | 0.25 (≈ 0.158 µM) | 2 (≈ 1.26 µM) | 1 | 2 (≈ 1.26 µM) | 0.5 (≈ 0.315 µM) | 8 (≈ 5.04 µM) | 8 (≈ 5.04 µM) | 2 (≈ 1.26 µM) | 1
